Assay results from article PMC8027564, “A novel luminescence-based β-arrestin recruitment assay for unmodified receptors” (The Journal of Biological Chemistry, 2021).
Where a name gives a salt, the structure may show the parent alone.

Key:
[1] = test system: Hek293 cells without cotransfection of any receptor; experiment: MeNArC and EeNArC negative controls, Hek293 without cotransfection of any receptor; type: cell-based, human; settings: 10 µM agonist
[2] = target: T1, AT1R (Homo sapiens, UniProt P30556); experiment: MeNArC β-arrestin membrane recruitment assay, unmodified AT1R, Hek293; type: cell-based
T1 construct: signal peptide (N); expressed in transfected cells; host or cells: Hek293
T1 sequence (P30556 1-359): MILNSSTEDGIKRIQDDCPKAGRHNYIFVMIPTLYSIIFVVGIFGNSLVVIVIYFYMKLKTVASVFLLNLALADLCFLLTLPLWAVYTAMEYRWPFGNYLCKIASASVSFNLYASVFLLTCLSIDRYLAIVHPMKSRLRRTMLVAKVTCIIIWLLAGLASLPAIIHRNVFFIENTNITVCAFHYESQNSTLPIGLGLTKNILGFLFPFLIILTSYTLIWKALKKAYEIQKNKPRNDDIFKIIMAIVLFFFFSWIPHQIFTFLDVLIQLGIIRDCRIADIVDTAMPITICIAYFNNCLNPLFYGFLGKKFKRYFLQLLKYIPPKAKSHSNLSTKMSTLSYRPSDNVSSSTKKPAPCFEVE

[3] = target: T1, AT1R; experiment: EeNArC β-arrestin early endosome recruitment assay, unmodified AT1R, Hek293; type: cell-based; settings: 450 mM sucrose, Ang II, early endosomes
[4] = target: T2, FKBP / FRB (UniProt P42345+Q62658); experiment: rapamycin-induced dimerization of FKBP and FRB fused to the N- and C-terminal NanoLuc fragments; type: cell-based; settings: 50 nM rapamycin; Hek293 cotransfected with both fragments
T2 construct: expressed in transfected cells; host or cells: Hek293
T2 sequence (Q62658 3-108): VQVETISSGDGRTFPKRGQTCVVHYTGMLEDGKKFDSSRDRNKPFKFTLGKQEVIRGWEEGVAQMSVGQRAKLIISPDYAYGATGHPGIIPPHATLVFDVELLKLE
T2 sequence (P42345 2012-2144): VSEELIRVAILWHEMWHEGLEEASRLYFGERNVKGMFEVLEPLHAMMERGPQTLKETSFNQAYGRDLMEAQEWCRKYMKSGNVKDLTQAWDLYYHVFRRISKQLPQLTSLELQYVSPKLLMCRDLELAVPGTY

[5] = test system: MOR 11S/T-A; experiment: MeNArC β-arrestin2 recruitment assay, MOR 11S/T-A mutant, Hek293; type: cell-based
[6] = target: MOR (Homo sapiens, UniProt P35372); type: cell-based
MOR, sequence (P35372 whole entry): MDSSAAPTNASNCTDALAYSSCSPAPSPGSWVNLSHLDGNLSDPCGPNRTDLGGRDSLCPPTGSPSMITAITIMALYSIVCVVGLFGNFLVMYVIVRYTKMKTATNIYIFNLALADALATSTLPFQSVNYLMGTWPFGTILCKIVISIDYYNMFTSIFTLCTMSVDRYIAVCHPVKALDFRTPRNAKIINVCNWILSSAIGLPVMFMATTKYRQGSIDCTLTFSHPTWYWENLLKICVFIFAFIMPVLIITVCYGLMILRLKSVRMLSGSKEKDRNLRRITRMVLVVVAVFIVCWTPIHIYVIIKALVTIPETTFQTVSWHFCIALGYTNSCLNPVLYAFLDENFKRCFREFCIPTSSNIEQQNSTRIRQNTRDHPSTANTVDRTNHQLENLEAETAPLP
MOR, sequence (P32121 whole entry partner): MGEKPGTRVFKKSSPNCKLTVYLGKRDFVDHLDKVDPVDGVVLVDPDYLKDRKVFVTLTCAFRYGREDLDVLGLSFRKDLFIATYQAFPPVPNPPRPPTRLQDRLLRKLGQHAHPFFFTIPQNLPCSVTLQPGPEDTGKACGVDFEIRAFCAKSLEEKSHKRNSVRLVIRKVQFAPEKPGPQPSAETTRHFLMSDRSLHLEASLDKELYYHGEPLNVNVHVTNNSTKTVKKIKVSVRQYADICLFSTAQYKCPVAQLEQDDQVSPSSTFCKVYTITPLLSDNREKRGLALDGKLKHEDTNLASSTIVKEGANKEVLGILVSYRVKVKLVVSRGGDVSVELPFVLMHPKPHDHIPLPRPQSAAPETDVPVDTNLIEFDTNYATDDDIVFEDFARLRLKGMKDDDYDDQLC

[7] = target: T3, D2R (Homo sapiens, UniProt P14416); experiment: cell-based; type: cell-based
T3 construct: expressed in transfected cells; host or cells: Hek293 (D2R cotransfected with GRK2, MeN and ArC)
T3 sequence (P14416 1-414 isoform P14416-2): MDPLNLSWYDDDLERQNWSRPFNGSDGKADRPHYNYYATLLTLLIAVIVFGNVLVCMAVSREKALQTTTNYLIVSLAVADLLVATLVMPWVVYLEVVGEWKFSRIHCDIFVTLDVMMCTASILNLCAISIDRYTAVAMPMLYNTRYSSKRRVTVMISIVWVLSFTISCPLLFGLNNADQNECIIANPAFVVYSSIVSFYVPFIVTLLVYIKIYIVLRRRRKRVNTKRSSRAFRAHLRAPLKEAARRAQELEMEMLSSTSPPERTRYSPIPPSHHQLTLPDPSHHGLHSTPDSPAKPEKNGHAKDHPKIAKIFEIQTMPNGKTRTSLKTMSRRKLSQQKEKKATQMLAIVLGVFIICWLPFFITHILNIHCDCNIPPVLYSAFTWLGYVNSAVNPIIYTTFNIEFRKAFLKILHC

NCCc1ccc(O)c(O)c1 [dopamine, Dopamine hydrochloride]
response in MeNArC and EeNArC assays without receptor [1]: no response was observed

CCCc1nc(C(C)(C)O)c(C(=O)O)n1Cc1ccc(-c2ccccc2-c2nnn[nH]2)cc1 [olmesartan]
reversal of agonist-induced β-arrestin recruitment by antagonist added after agonist ([2]; 0.1 μM Ang II pretreatment, absence or presence of sucrose): could not be reversed

OC[C@H]1O[C@@](CO)(O[C@H]2O[C@H](CO)[C@@H](O)[C@H](O)[C@H]2O)[C@@H](O)[C@@H]1O [sucrose]
effect of sucrose on agonist effect [3]: dramatically blunted
effect of sucrose on agonist response ([2]; 450 mM sucrose, Ang II response, plasma membrane): no effect on agonist response

CO[C@H]1C[C@@H]2CC[C@@H](C)[C@@](O)(O2)C(=O)C(=O)N2CCCC[C@H]2C(=O)O[C@H]([C@H](C)C[C@@H]2CC[C@@H](O)[C@H](OC)C2)CC(=O)[C@H](C)/C=C(\C)[C@@H](O)[C@@H](OC)C(=O)[C@H](C)C[C@H](C)/C=C/C=C/C=C/1C [rapamycin]
increase of basal luminescence signal by addition of rapamycin [4]: ~30 fold

C[C@@H](NC(=O)[C@@H](N)Cc1ccc(O)cc1)C(=O)NCC(=O)N(C)[C@@H](Cc1ccccc1)C(=O)NCCO [DAMGO, [D-Ala^2, N-MePhe^4, Gly-ol]-enkephalin]
pEC50 ± SD ([5]; MOR 11S/T-A, β-arrestin2): 6.82 ± 0.19
efficacy for MOR 11S/T-A compared with WT MOR ([5]; from fold changes): 65%
EC80 [6]: 60 nM
response in MeNArC and EeNArC assays without receptor [1]: no response was observed

CCCN1CCCC(c2cccc(O)c2)C1 (stereo not shown) [PPP, (3-hydroxyphenyl)-N-propylpiperidine]
efficacy compared with dopamine [7]: 10%

CC[C@H](C)[C@H](NC(=O)[C@H](Cc1ccc(O)cc1)NC(=O)[C@@H](NC(=O)[C@H](CCCNC(=N)N)NC(=O)[C@@H](N)CC(=O)O)C(C)C)C(=O)N[C@@H](Cc1c[nH]cn1)C(=O)N1CCC[C@H]1C(=O)N[C@@H](Cc1ccccc1)C(=O)O [Ang II, Angiotensin II]
response in MeNArC and EeNArC assays without receptor [1]: no response was observed

CC(C)C[C@H]1C(=O)N2CCC[C@H]2[C@]2(O)O[C@](NC(=O)[C@@H]3C=C4c5cccc6[nH]c(Br)c(c56)C[C@H]4N(C)C3)(C(C)C)C(=O)N12 [bromocriptine]
EC50 [7]: 66.1 nM
efficacy compared with dopamine [7]: 46%

CCN(CC)C(=O)N[C@H]1C[C@@H]2c3cccc4[nH]cc(c34)C[C@H]2N(C)C1 [terguride, Terguride]
EC50 [7]: 9.55 nM
efficacy compared with dopamine [7]: 24%

CCN1CCCC1CNC(=O)c1cc(S(N)(=O)=O)ccc1OC (stereo not shown) [sulpiride]
effect of antagonist on agonist-induced luminescence [7]: strong decay in luminescence down to baseline
